We go through one compound from PMC12640663 (Chemmedchem, 2025).

Assay [1] deals with insulin‐resistant HepG2 cells. Put plainly: Insulin‐resistant HepG2 model, western blotting of PTP1B and pAKT. Type of assay: cell-based. The conditions noted are these: 24 h, western blot. Here is the method:
Subsequently, we evaluated the same compounds in a HepG2 insulin‐resistant model.
Bar graphs represent the mean ± SEM of normalized values. The control levels were set at 1. T‐test significance *p < 0.05, when compared with control (DMSO). Statistical analyses were carried out using GraphPad Prism 8.0.
For the resistant insulin model using HepG2 cells, the following reagents were acquired from Sigma–Aldrich (Toluca, MEX, Mexico, and St. Louis, MO, USA): Insulin (I2643), Dulbecco's modified eagle's medium (DMEM) low glucose media (D5523), Trypsin‐EDTA solution (T4174), antibiotic‐antimycotic solution(A5955), dimethyl sulfoxide (DMSO‐D8418), sodium deoxycholate (D6750), triethylammonium bicarbonate buffer 1 M (TEAB‐T7408), glutaraldehyde 25% (G6275), acetic acid (695092), and crystal violet (C0775). The bicinchoninic acid protein quantitation kit (23225) and the Halt Cocktail with protease and phosphatase inhibitors (1861281) were acquired from ThermoFisherScientific. Fetal bovine serum (26140–079) was from Gibco. The chemiluminescent solution (170–5061) was acquired from Biorad. Rabbit anti‐PTP1B (5311S) and mouse anti‐β actin (3700S) primary antibodies were obtained from Cell Signaling, and secondary antibodies coupled with horseradish peroxidase were from Jackson laboratories (rabbit‐111−035, mouse‐115–035).
Treated cells with compounds were washed twice with 1 mL of PBS, and protein was extracted using 500 µL of a buffer solution containing 10% sodium deoxycholate in 10% TEAB, supplemented with a protease and phosphatase inhibitor cocktail. The extracts were heated to 80 °C for 5 min and disaggregated through passages with an insulin syringe. The cell extracts were centrifuged at 15,000 rpm for 15 min at 4 °C, and the supernatant was collected. Protein quantification was performed using the bicinchoninic acid assay method, and aliquots were prepared for western blotting. SDS/PAGE was conducted, and proteins were transferred onto a nitrocellulose membrane. The membrane was then blocked with 10% skimmed milk in TBST for 1 h and incubated overnight with primary antibodies (1:400 dilution). Secondary antibodies coupled to horseradish peroxidase were diluted 1:2000, and membranes were incubated for 1 h. The blots were documented using the ChemiDoc MP (Bio‐Rad), and densitometric analysis was performed using ImageJ (U.S. National Institutes of Health). Statistical analyses were carried out using GraphPad Prism 8.0.

The target of the next assay is T1, hPTP1B1–400 (Homo sapiens, UniProt P18031).
T1 sequence (P18031 1-400): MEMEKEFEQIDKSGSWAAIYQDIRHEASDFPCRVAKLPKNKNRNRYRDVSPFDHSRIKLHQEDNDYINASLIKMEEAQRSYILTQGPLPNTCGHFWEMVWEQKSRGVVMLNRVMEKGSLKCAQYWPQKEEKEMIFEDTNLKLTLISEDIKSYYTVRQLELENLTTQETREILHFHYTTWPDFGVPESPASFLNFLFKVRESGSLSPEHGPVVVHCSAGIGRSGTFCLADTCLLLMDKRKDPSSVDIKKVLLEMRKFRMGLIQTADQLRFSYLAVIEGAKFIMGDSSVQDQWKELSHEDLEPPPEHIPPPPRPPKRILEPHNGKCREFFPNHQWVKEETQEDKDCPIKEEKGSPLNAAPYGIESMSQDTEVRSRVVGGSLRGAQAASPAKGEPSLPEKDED
Put plainly: PTP1B activity assay, long form hPTP1B1–400 (p‐NPP). Type of assay: biochemical. Further details: hPTP1B1–400 (the long form with an intrinsically disordered C‐terminal regulatory domain). Conditions: ± S.D; p‐NPP substrate, 15 min at 37 °C, triplicate. Here is the method:
The inhibitory activity of PTP1B was assessed using two enzyme variants: hPTP1B1–285 (the short form with an N‐terminal catalytic domain) and hPTP1B1–400 (the long form with an intrinsically disordered C‐terminal regulatory domain). […] According to Coronel‐Tovar et al., the disordered region of the C‐terminal domain plays a crucial role in modulating PTP1B enzymatic activity.^[ [30] ^] […] Different concentrations of the compounds were evaluated to determine their IC50 values (Table 1 ).
Recombinant human protein tyrosine phosphatase 1B, consisting of 400 and 285 amino acid residues, was used.^[ [35] ^] […] Aliquots of 0–10 µL of the test compounds (triplicate) were taken and incubated for 15 min at 37 °C with 85 µL of Tris buffer solution (50 mM, pH 6.8) containing PTP1B enzyme and 5 µL of p‐nitrophenyl phosphate substrate (p‐NPP, 10 mM). Absorbance was then measured at a wavelength of 405 nm. The inhibitory activity was determined according to Equation (1). (1) % PTP1B=(A405b/A405c)×100 where % PTP1B: Is the percentage of inhibition. A 405c: Is the corrected absorbance of the blank (A 405initial–A 405final). A 405b: Is the corrected absorbance of the compounds (A 405control–A 405compound).

The structures appear in SMILES notation. “Also recorded” adds a separate entry of the source.

Usually IC50 stands for the concentration that inhibits the measured activity by half. A low value points to higher potency. On to `CC1(C(=O)O)CCC2(C)CCC3(C)C(=CC(=O)C4C5(C)Cc6c([nH]c7ccc(C(F)(F)F)cc67)C(C)(C)C5CCC43C)C2C1` (centres unmarked) [Compound 3c], for which the “AKT phosphorylation (pAKT) levels” value in assay [1] was “slight increase; also recorded: slightly increased pAKT levels”. Also, half-maximal inhibition on hPTP1B1–400 (IC50) was put at 2060 ± 80 nM.
